Experimental data: the supplement of paper PMC13380429

Columns and labels:
Settings in all cases: 72 h
Caco-2 [1] = experiment: cell viability relative to DMSO; higher = less toxic
Calu-3 [2] = experiment: as above
HepG2 [3] = experiment: as above
U2OS [4] = experiment: as above
Vero E6 [5] = experiment: as above
Caco-2 [6] = experiment: relative viability EC50 (midpoint between 100% and the lowest measured viability); higher = less toxic
Calu-3 [7] = experiment: as above
HepG2 [8] = experiment: as above
U2OS [9] = experiment: as above
Vero E6 [10] = experiment: as above
Caco-2 [11] = experiment: drug sensitivity score (DSS) for viability; higher = more toxic; extreme values may be limits of the assay
Calu-3 [12] = experiment: as above
HepG2 [13] = experiment: as above
U2OS [14] = experiment: as above
Vero E6 [15] = experiment: as above

| Compound | cell viability (Caco-2 [1]; 1 nM) | cell viability (Caco-2 [1]; 10 nM) | cell viability (Caco-2 [1]; 100 nM) | cell viability (Caco-2 [1]; 1000 nM) | cell viability (Caco-2 [1]; 10000 nM) | cell viability (Calu-3 [2]; 1 nM) | cell viability (Calu-3 [2]; 10 nM) | cell viability (Calu-3 [2]; 100 nM) | cell viability (Calu-3 [2]; 1000 nM) | cell viability (Calu-3 [2]; 10000 nM) | cell viability (HepG2 [3]; 1 nM) | cell viability (HepG2 [3]; 10 nM) | cell viability (HepG2 [3]; 100 nM) | cell viability (HepG2 [3]; 1000 nM) | cell viability (HepG2 [3]; 10000 nM) | cell viability (U2OS [4]; 1 nM) | cell viability (U2OS [4]; 10 nM) | cell viability (U2OS [4]; 100 nM) | cell viability (U2OS [4]; 1000 nM) | cell viability (U2OS [4]; 10000 nM) | cell viability (Vero E6 [5]; 1 nM) | cell viability (Vero E6 [5]; 10 nM) | cell viability (Vero E6 [5]; 100 nM) | cell viability (Vero E6 [5]; 1000 nM) | cell viability (Vero E6 [5]; 10000 nM) | relative viability EC50 (Caco-2 [6]) | relative viability EC50 (Calu-3 [7]) | relative viability EC50 (HepG2 [8]) | relative viability EC50 (U2OS [9]) | relative viability EC50 (Vero E6 [10]) | drug sensitivity score (Caco-2 [11]) | drug sensitivity score (Calu-3 [12]) | drug sensitivity score (HepG2 [13]) | drug sensitivity score (U2OS [14]) | drug sensitivity score (Vero E6 [15]) |
| --- | --- | --- | --- | --- | --- | --- | --- | --- | --- | --- | --- | --- | --- | --- | --- | --- | --- | --- | --- | --- | --- | --- | --- | --- | --- | --- | --- | --- | --- | --- | --- | --- | --- | --- | --- |
| N#Cc1ccc(C2CCCc3cncn32)cc1 (stereo not given) [fadrozole] | 77.9% | 87.4% | 89.6% | 92.6% | 82.3% | 91.1% | 103% | 96.6% | 98% | 95.3% | 96.9% | 100% | 91.6% | 103% | 96.2% | 96.2% | 91.4% | 96.4% | 93.4% | 97.4% | 95.4% | 95.6% | 89.1% | 94.9% | 95.2% | > 10 µM | > 10 µM | > 10 µM | > 10 µM | > 10 µM | 0 | 0 | 0 | 0 | 0 |
| COc1ccc(Oc2c(Cl)cnn(C3c4ccccc4-c4ccccc43)c2=O)cc1 | 98.7% | 95% | 97% | 101% | 88.7% | 110% | 99.9% | 96.4% | 101% | 101% | 103% | 99.8% | 93.5% | 108% | 100% | 102% | 95.1% | 94.3% | 97.9% | 95.5% | 92.6% | 107% | 94.7% | 96.4% | 99.6% | > 10 µM | > 10 µM | > 10 µM | > 10 µM | > 10 µM | 0 | 0 | 0 | 0 | 0 |
| Nc1c(CC(=O)O)cccc1C(=O)c1ccc(Br)cc1 [bromfenac] | 88.1% | 94.3% | 93.4% | 95.7% | 101% | 95.7% | 97% | 104% | 84.2% | 97.7% | 96.3% | 97.4% | 97.2% | 104% | 104% | 100% | 98.6% | 103% | 99.4% | 96% | 95.4% | 103% | 98.1% | 97.3% | 105% | > 10 µM | > 10 µM | > 10 µM | > 10 µM | > 10 µM | 0 | 0 | 0 | 0 | 0 |
| C[C@H](CCC(=O)NCCS(=O)(=O)O)[C@H]1CC[C@H]2[C@@H]3[C@@H](O)C[C@@H]4C[C@H](O)CC[C@]4(C)[C@H]3CC[C@]12C [ursodeoxycholyltaurine] | 103% | 94.9% | 87.4% | 91.8% | 108% | 106% | 93.9% | 100% | 104% | 97% | 94.5% | 96.7% | 85.1% | 97.7% | 96.8% | 97.8% | 97.4% | 98.9% | 97.2% | 98.4% | 105% | 110% | 100% | 101% | 97.2% | > 10 µM | > 10 µM | > 10 µM | > 10 µM | > 10 µM | 0 | 0 | 0 | 0 | 0 |
| CN1CCN(Cc2ccc(Nc3ncc(Cl)c(Nc4ccccc4S(=O)(=O)N(C)C)n3)cc2)CC1 [TP-0903] | 109% | 96.3% | 102% | 85.9% | 33.4% | 92.3% | 92% | 89% | 110% | 80.2% | 107% | 109% | 99.8% | 50.4% | 7% | 95% | 98.2% | 95.1% | 89.1% | 21% | 112% | 105% | 103% | 75.8% | 7.4% | 1.69 µM | > 10 µM | 0.948 µM | 2.06 µM | 1.51 µM | 5.9 | 0.3 | 11.2 | 6.2 | 8.8 |
| Cc1cc(=O)[nH]c(=S)[nH]1 [methylthiouracil] | 98.7% | 96.6% | 99.3% | 96.3% | 94.6% | 106% | 109% | 83.8% | 97.7% | 96.6% | 107% | 108% | 95.1% | 95.3% | 105% | 103% | 99% | 98.7% | 97.4% | 97.3% | 101% | 92.6% | 100% | 92.1% | 97.8% | > 10 µM | > 10 µM | > 10 µM | > 10 µM | > 10 µM | 0 | 0 | 0 | 0 | 0 |
| CC1=C(C)C(=O)C(C(CCCCCC(=O)O)c2ccccc2)=C(C)C1=O (stereo not given) [seratrodast] | 91% | 92.7% | 104% | 90.4% | 95.3% | 104% | 91% | 99% | 99.2% | 104% | 98.7% | 98.7% | 101% | 98.1% | 103% | 99.8% | 95.7% | 99.6% | 93.2% | 98.5% | 97.7% | 99.5% | 96.4% | 96.9% | 98.2% | > 10 µM | > 10 µM | > 10 µM | > 10 µM | > 10 µM | 0 | 0 | 0 | 0 | 0 |
| CC1=C(C(=O)O)N2C(=O)[C@@H](NC(=O)[C@H](N)c3ccc(O)cc3)[C@H]2SC1 [cefadroxil] | 92.8% | 93.5% | 93.1% | 85.7% | 99.1% | 100% | 99.1% | 107% | 93.2% | 106% | 90.4% | 101% | 95.6% | 103% | 105% | 101% | 96.2% | 99.4% | 97% | 103% | 89.4% | 101% | 91.8% | 98.1% | 104% | > 10 µM | > 10 µM | > 10 µM | > 10 µM | > 10 µM | 0 | 0 | 0 | 0 | 0 |
| Cc1ccc2c(c1CCC(=O)O)CC[C@@H](NS(=O)(=O)c1ccc(Cl)cc1)C2 [terutroban] | 93% | 97.4% | 100% | 102% | 92.2% | 93.2% | 85.6% | 92.8% | 105% | 97.7% | 102% | 90.7% | 95.1% | 103% | 96.3% | 97.1% | 96.7% | 94.4% | 99.5% | 93.2% | 96.8% | 97.6% | 95.6% | 94.6% | 95.8% | > 10 µM | > 10 µM | > 10 µM | > 10 µM | > 10 µM | 0 | 0 | 0 | 0 | 0 |
| Nc1nc(=O)c2nc(CNc3ccc(C(=O)N[C@@H](CCC(=O)O)C(=O)O)cc3)cnc2[nH]1 [folic-acid] | 89.2% | 103% | 101% | 95.3% | 90.7% | 93.5% | 102% | 88.1% | 106% | 97.8% | 106% | 101% | 99.8% | 97.2% | 99.4% | 97.7% | 101% | 97% | 99.4% | 96.4% | 99.9% | 102% | 97% | 101% | 92.8% | > 10 µM | > 10 µM | > 10 µM | > 10 µM | > 10 µM | 0 | 0 | 0 | 0 | 0 |
| CC(C)[C@]12O[C@H]1[C@@H]1O[C@]13[C@]1(O[C@H]1C[C@H]1C4=C(CC[C@@]13C)C(=O)OC4)[C@@H]2O [triptolide] | 84.5% | 56.5% | 24.7% | 24.7% | 27.6% | 108% | 71.5% | 25.8% | 34.9% | 34.2% | 79.4% | 30% | 4.6% | 7.7% | 6.2% | 94% | 34.2% | 1.5% | 1.8% | 2.1% | 101% | 55.4% | 1.6% | 5.4% | 5.1% | 0.0058 µM | 0.0121 µM | 0.0036 µM | 0.0063 µM | 0.0108 µM | 29.2 | 27.1 | 39.2 | 38.2 | 35.8 |
| CN(C)c1cccc(Oc2cnc(Nc3cccc(O)c3)nc2)c1 [SEN-1269] | 96.5% | 102% | 102% | 96.3% | 82.3% | 94.5% | 99.7% | 100% | 95.4% | 102% | 102% | 104% | 93.8% | 93% | 99.9% | 101% | 102% | 95.5% | 99.5% | 94.8% | 98% | 94.4% | 95.9% | 89.2% | 93.4% | > 10 µM | > 10 µM | > 10 µM | > 10 µM | > 10 µM | 0.9 | 0 | 0 | 0 | 0 |
